Source: patent US10448639B2, “Fungicidal pyrazoles” (FMC CORPORATION, priority 2009, dated 2019)

Tests used:
[1] = test system: Puccinia recondita f. sp. tritici; assay: Test I: wheat leaf rust, preventive spray on wheat seedlings, visual disease rating; conditions: for Test I rating (% disease control): wheat leaf rust, 100 = 100% disease control; for pest or weed control at 200 µg/mL: 192 h, read-out: Test I rating (% disease control)
Septoria nodorum = assay: Test F: Septoria glume blotch, preventive spray on wheat seedlings, visual disease rating; conditions: for Test F rating (% disease control): 100 = 100% disease control; for pest or weed control at 200 µg/mL: Parastagonospora nodorum, in Triticum aestivum, 192 h, read-out: Test F rating (% disease control)
Alternaria solani = assay: Test C: tomato early blight, preventive spray on tomato seedlings, visual disease rating; conditions: for Test C rating (% disease control): tomato early blight, 100 = 100% disease control; for pest or weed control at 200 µg/mL: Alternaria solani, in Solanum lycopersicum, 168 h, read-out: Test C rating (% disease control)
[2] = test system: Puccinia recondita f. sp. tritici; assay: Test H: wheat leaf rust, curative spray on inoculated wheat seedlings, visual disease rating; conditions: for Test H rating (% disease control): wheat leaf rust, 100 = 100% disease control; for pest or weed control at 200 µg/mL: 144 h, read-out: Test H rating (% disease control)
[3] = test system: Erysiphe graminis f sp. tritici; assay: Test J: wheat powdery mildew, preventive spray on wheat seedlings, visual disease rating; conditions: for Test J rating (% disease control): wheat powdery mildew, 100 = 100% disease control; for pest or weed control at 200 µg/mL: Blumeria graminis, in Triticum aestivum, 192 h, read-out: Test J rating (% disease control)
Septoria tritici = assay: Test G: wheat leaf blotch, preventive spray on wheat seedlings, visual disease rating; conditions: for Test G rating (% disease control): wheat leaf blotch, 100 = 100% disease control; for pest or weed control at 200 µg/mL: Zymoseptoria tritici, in Triticum aestivum, 504 h, read-out: Test G rating (% disease control)
Botrytis cinerea = assay: Test B: tomato Botrytis, preventive spray on tomato seedlings, visual disease rating; conditions: for Test B rating (% disease control): tomato Botrytis, 100 = 100% disease control; for pest or weed control at 200 µg/mL: Botrytis cinerea, in Solanum lycopersicum, 120 h, read-out: Test B rating (% disease control)
[4] = preventive, 0 = no control relative to controls
[5] = Septoria glume blotch, 0 = no control relative to controls
[6] = 0 = no control relative to controls
[7] = curative, 0 = no control relative to controls
[8] = preventive spray, 0 = no control
[9] = Septoria glume blotch on wheat, preventive spray, 0 = no control

SMILES | Test I rating (% disease control) [1, 8] | Test F rating (% disease control) (Septoria nodorum; [9]) | Test C rating (% disease control) (Alternaria solani; [8]) | Test H rating (% disease control) ([2]; curative spray, 0 = no control) | Test J rating (% disease control) [3, 8] | Test G rating (% disease control) (Septoria tritici; [8]) | Test B rating (% disease control) (Botrytis cinerea; [8]) | other results
CCN(c1c(F)cc(OC)cc1F)c1c(-c2ccc(F)cc2Cl)c(C)nn1C [compound 158] | – | – | – | – | – | – | – | Test I rating (% disease control) [1, 4]: 99%; Test F rating (% disease control) (Septoria nodorum; [5]): 0%; Test C rating (% disease control) (Alternaria solani; [6]): 0%; Test H rating (% disease control) [2, 7]: 18%; Test J rating (% disease control) [3, 6]: 98%; Test G rating (% disease control) (Septoria tritici; [6]): 99%; Test B rating (% disease control) (Botrytis cinerea; [6]): 100%
Cc1nn(C)c(Nc2ncc(F)cc2F)c1-c1c(F)cc(F)cc1F [compound 109] | 100% | 97% | 99% | 99% | 100% | 100% | 100% | –
COc1cc(F)c(-c2c(C)nn(C)c2Oc2ccc(Br)c(C)c2)c(F)c1 [compound 186] | – | – | – | – | – | – | – | Test I rating (% disease control) [1, 4]: 54%; Test F rating (% disease control) (Septoria nodorum; [5]): 0%; Test C rating (% disease control) (Alternaria solani; [6]): 0%; Test H rating (% disease control) [2, 7]: 0%; Test J rating (% disease control) [3, 6]: 93%; Test G rating (% disease control) (Septoria tritici; [6]): 99%; Test B rating (% disease control) (Botrytis cinerea; [6]): 0%
Cc1nn(C)c(Nc2ccc(F)cc2F)c1-c1c(F)cc(C#N)cc1F [compound 106] | 99% | 90% | 99% | 82% | 100% | 100% | 100% | –
Cc1nn(C)c(Nc2c(F)cc(F)cc2F)c1-c1ccc(F)cc1Cl [Compound 18, 4-(2-chloro-4-fluorophenyl)-1,3-dimethyl-N-(2,4,6-trifluorophenyl)-1H-pyrazol-5-amine] | – | – | – | – | – | – | – | pest or weed control at 200 µg/mL [1]: 100%; pest or weed control at 200 µg/mL (Septoria nodorum): 99%; pest or weed control at 200 µg/mL (Alternaria solani): 100%; pest or weed control at 200 µg/mL [2]: 99%; pest or weed control at 200 µg/mL [3]: 100%; pest or weed control at 200 µg/mL (Septoria tritici): 95%; pest or weed control at 200 µg/mL (Botrytis cinerea): 99%
COc1cc(F)c(-c2c(C)nn(C)c2Nc2ccc(F)c(F)c2)c(F)c1 [compound 48] | 98% | 0% | 78% | 0% | 98% | 99% | 100% | –
Cc1nn(C)c(Nc2c(F)cc(F)cc2F)c1-c1ccc(F)c(F)c1 [compound 35] | 97% | 0% | 0% | 0% | 100% | 95% | 100% | –
Cc1nn(C)c(Oc2ccc(C#N)cc2Cl)c1-c1ccc(F)cc1Cl [Compound 139, 3-chloro-4-[[4-(2-chloro-4-fluorophenyl)-1,3-dimethyl-1H-pyrazol-5-yl]oxy]benzonitrile] | – | – | – | – | – | – | – | pest or weed control at 200 µg/mL [1]: 99%; pest or weed control at 200 µg/mL (Septoria nodorum): 100%; pest or weed control at 200 µg/mL (Alternaria solani): 86%; pest or weed control at 200 µg/mL [2]: 69%; pest or weed control at 200 µg/mL [3]: 100%; pest or weed control at 200 µg/mL (Septoria tritici): 100%; pest or weed control at 200 µg/mL (Botrytis cinerea): 100%
COc1cc(F)c(-c2c(C)nn(C)c2Oc2c(F)cccc2F)c(F)c1 [compound 84] | 100% | 78% | 100% | 98% | 99% | 100% | 100% | –
Cc1nn(C)c(Oc2c(F)cc(C#N)cc2F)c1-c1ccc(Cl)nc1 [compound 86] | 0% | 0% | 0% | 0% | 0% | 48% | 0% | –
